# According to patent US20100255530A1, “BACTERIA DETECTION AND/OR IDENTIFICATION MEDIUM” (BIOMERIEUX, priority 2007, published 2010):
# Tested on: Citrobacter freundii 009
# Experiment: Impact of cellobiose on colony coloration, Citrobacter freundii 009
# Format: cell-based
# Conditions: cellobiose 0.5 g/l in medium combining the glucuronide and galactoside substrates
# Excerpt: The coloration of these colonies is noted.
smiles,measurement,value
O=C[C@H](O)[C@@H](O)[C@H](O[C@@H]1O[C@H](CO)[C@@H](O)[C@H](O)[C@H]1O)[C@H](O)CO [cellobiose],distinction of the Citrobacter 009 strain from the E. coli strains,makes it possible to distinguish the Citrobacter 009 strain more clearly from the E. coli strains
